# Assay results: ChEMBL document CHEMBL1136103, “Structure-based drug design of pyrazinone antithrombotics as selective inhibitors of the tissue factor VIIa complex” (Bioorg Med Chem Lett, 2003)
# How the values were obtained:
# Serine protease 1 = Serine protease 1 (Homo sapiens, UniProt P07477)
# Description: Inhibitory activity against trypsin
# Coagulation factor X = Coagulation factor X (Homo sapiens, UniProt P00742); assay: Inhibitory activity against coagulation factor X
# Chain of Coagulation factor X (P00742 41-179 limits assumed): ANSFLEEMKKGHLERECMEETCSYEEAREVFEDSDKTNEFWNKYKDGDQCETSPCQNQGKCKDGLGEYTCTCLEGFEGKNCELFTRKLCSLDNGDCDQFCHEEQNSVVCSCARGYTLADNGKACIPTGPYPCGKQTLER
# Chain of Coagulation factor X (P00742 235-488 limits assumed): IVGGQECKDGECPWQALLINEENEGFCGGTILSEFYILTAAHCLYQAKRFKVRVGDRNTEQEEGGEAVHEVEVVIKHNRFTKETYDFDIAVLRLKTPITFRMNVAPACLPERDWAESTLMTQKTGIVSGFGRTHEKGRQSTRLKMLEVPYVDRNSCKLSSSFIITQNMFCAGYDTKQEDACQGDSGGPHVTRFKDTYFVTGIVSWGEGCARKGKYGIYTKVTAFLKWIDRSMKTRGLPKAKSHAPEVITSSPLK
# Chain of Serine protease 1 (P07477 whole entry): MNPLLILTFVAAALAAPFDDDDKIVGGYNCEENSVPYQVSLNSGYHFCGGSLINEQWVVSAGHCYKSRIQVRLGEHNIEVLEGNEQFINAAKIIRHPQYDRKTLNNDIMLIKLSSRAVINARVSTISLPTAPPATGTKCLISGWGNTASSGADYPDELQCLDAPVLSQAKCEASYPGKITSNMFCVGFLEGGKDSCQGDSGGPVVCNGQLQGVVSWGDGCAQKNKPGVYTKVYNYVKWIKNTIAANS
structure (smiles),measurement,setting,value
N=C(N)NCCC[C@H](NC(=O)Cn1c(Cc2ccccc2)c(Cl)nc(NCCc2ccccc2)c1=O)C(=O)c1nccs1,IC50,Serine protease 1,470 nM
CC(C)Nc1nc(Cl)c(-c2cc(N)cc(C(=O)O)c2)n(CC(=O)NCc2ccc(C(=N)N)cc2)c1=O,IC50,Serine protease 1,64 nM
same,IC50,Coagulation factor X,> 100000 nM
N=C(N)c1ccc(CNC(=O)Cn2c(-c3cccc(N)c3)c(Cl)nc(NC3CCC3)c2=O)cc1,IC50,Serine protease 1,32 nM
same,IC50,Coagulation factor X,> 100000 nM
N=C(N)NCCC[C@H](NC(=O)Cn1c(-c2ccccc2)c(Cl)nc(NCCc2ccccc2)c1=O)C(=O)c1nccs1,IC50,Serine protease 1,420 nM
same,IC50,Coagulation factor X,1410 nM
